In patent US20200123127A1, “REMOVAL OF SENESCENCE-ASSOCIATED MACROPHAGES” (EVERON BIOSCIENCES, INC., priority 2016, published 2020):
Like-named read-outs stand apart in the source and are kept apart here.

Tests used:
[1] = system: human neonatal dermal fibroblasts (NDF); experiment: Resazurin viability assay, senescent vs proliferating/quiescent human neonatal dermal fibroblasts; assay type: cell-based; conditions: Homo sapiens, Fibroblast, 72 h, 72 hour exposure, resazurin
Experimental: FIG. 2. Compound A1.1 selectively kills senescent human neonatal dermal fibroblasts (NDF) cells in a dose- and time-dependent manner. (FIG. 2A) Normal proliferating and quiescent NDF cells, and the cells made senescent via exposure to genotoxic agents (doxorubicin, bleomycin and gamma-irradiation) were incubated with increasing concentrations of A1.1. At 72 hours post-treatment cell viability was measured via resazurin viability assay. (FIG. 2B) Compound A1.1 selectively kills senescent NDF cells in time-dependent manner discriminating between acute genotoxic stress and senescence. Acutely damaged NDF cells were irradiated with 4 Gy gamma-irradiation 24 hours before A1.1 treatment. Senescent NDF cells were treated with bleomycin or irradiated with 15 Gy and incubated for 14 days to induce senescence before treatment with A1.1. Proliferating acutely damaged and senescent NDF cell were treated with 1.875-30 μM A1.1 and viable cells were measured at 72 hours after treatment. Average and standard deviation are shown.
Normal proliferating and quiescent NDF cells, and the cells made senescent via exposure to genotoxic agents (doxorubicin, bleomycin and gamma-irradiation) were incubated with increasing concentrations of A1.1. At 72 hours post-treatment cell viability was measured via resazurin viability assay.
A1.1 selectively kills senescent human neonatal dermal fibroblasts (NDF) cells in time-dependent manner discriminating between acute genotoxic stress and senescence ([…]). Acutely damaged NDF cells were irradiated with 4 Gy gamma-irradiation 24 hours before A1.1 treatment. Senescent NDF cells were treated with bleomycin or irradiated with 15 Gy and incubated for 14 days to induce senescence before treatment with A1.1.
(§1) Cytotoxicity of A1.1 analogs against bleomycin-induced senescent human NDFs and rat dermal fibroblasts (RDFs). Activity of analogs was assessed from dose-response curves against irradiation- or bleomycin-induced senescent and proliferating cells to calculate IC50s (uM). The fold difference of proliferating versus senescent cell IC50s was used to assess the level of specific anti-senescent activity of the compounds.
(§2) For generation senescent human neonatal dermal fibroblasts (NDFs) and adult rat dermal fibroblasts (RDFs), cells are treated at ˜10 ug/ml bleomycin for 3 days (for bleomycin-induced senescence) or irradiated once at 20 Gy using a gamma irradiator (Cs source), followed by at least 7 day recovery in fresh medium for induction of senescence. Senescent and non-senescent (proliferating) cells for each cell line are plated into 384-w plate, followed by 72 hour exposure to a dose titration of compounds. Viability measurements are estimated using the resazurin viability assay. Using GraphPad Prism 5, the IC50 values are calculated from the non-linear regression of log-transformed compound concentrations versus dose-response normalized to background and non-treated controls.

[2] = system: adult rat dermal fibroblasts (RDF); experiment: Resazurin viability assay, senescent vs proliferating rat dermal fibroblasts; assay type: cell-based; conditions: Rattus norvegicus, Fibroblast, 72 hour exposure, resazurin
Experimental: as §1, §2

[3] = proliferating NDF, read-out: IC50 NDFprolif
[4] = senescent NDF, bleomycin-induced, read-out: IC50 NDFsen.bleo
[5] = light or radiation study, senescent NDF, irradiation-induced, read-out: IC50 NDFsen.irr
[6] = light or radiation study, senescent RDF, irradiation-induced, read-out: IC50 RDFsen.irr
[7] = proliferating RDF, read-out: IC50 RDFprolif
[8] = senescent RDF, bleomycin-induced, read-out: IC50 RDFsen.bleo

| Structure (SMILES) | IC50 [1, 3] | IC50 [1, 4] | IC50 [1, 5] | IC50 [2, 6] | IC50 [2, 7] | IC50 [2, 8] |
| --- | --- | --- | --- | --- | --- | --- |
| CC1(C)CC(=NO)c2c(SCc3ccccc3)sc(C(=O)NCc3ccccc3)c2C1 [Example A1.4, N-benzyl-3-(benzylthio)-4-(hydroxyimino)-6,6-dimethyl-4,5,6,7-tetrahydrobenzo[c]thiophene-1-carboxamide] | > 20 µM | < 10 µM |  |  |  |  |
| CCOC(=O)c1sc(Sc2ccccc2)c2c1CC(c1ccc(OC)cc1)C/C2=N\O (stereo not drawn) [Example A1.5, Ethyl 4-(hydroxyimino)-6-(4-methoxyphenyl)-3-(phenylthio)-4,5,6,7-tetrahydro-benzo[c]thiophene-1-carboxylate] | > 10 µM | < 10 µM | < 10 µM | < 5 µM | > 10 µM | < 5 µM |
| CCOC(=O)c1sc(SCc2ccccc2)c2c1CC(c1ccc(F)cc1)CC2=NO (stereo not drawn) [Example A1.7, Ethyl 3-(benzylthio)-6-(4-fluorophenyl)-4-(hydroxyimino)-4,5,6,7-tetrahydrobenzo[c]-thiophene-1-carboxylate] | > 10 µM | < 2.5 µM | < 2.5 µM | < 2.5 µM | > 5 µM | < 2.5 µM |
| COc1ccc(C2CC(=NO)c3c(SCc4ccccc4)sc(C(=O)OCc4ccccc4)c3C2)cc1 (stereo not drawn) [Example A1.8, Benzyl 3-(benzylthio)-4-(hydroxyimino)-6-(4-methoxyphenyl)-4,5,6,7-tetrahydrobenzo[c]-thiophene-1-carboxylate] | > 20 µM | < 10 µM |  |  |  |  |
| CCOC(=O)c1sc(SCc2ccccc2)c2c1C(c1ccc(OC)cc1)CC/C2=N\O (stereo not drawn) [Example A1.9, Ethyl 3-(benzylthio)-4-(hydroxyimino)-7-(4-methoxyphenyl)-4,5,6,7-tetrahydrobenzo[c]-thiophene-1-carboxylate] | > 20 µM | < 20 µM | < 20 µM | < 20 µM | > 20 µM | > 20 µM |
| COc1ccc(C2C/C(=N\O)c3c(SCc4ccccc4)sc(C(=O)NCc4ccccc4)c3C2)cc1 (stereo not drawn) [Example A1.14, N-benzyl-3-(benzylthio)-4-(hydroxyimino)-6-(4-methoxyphenyl)-4,5,6,7-tetrahydrobenzo[c]thiophene-1-carboxamide] | > 20 µM | < 5 µM | < 5 µM | < 2.5 µM | > 20 µM | < 2.5 µM |
| COc1ccc(C2C/C(=N\O)c3c(SCc4ccccc4)sc(C(=O)NCc4ccco4)c3C2)cc1 (stereo not drawn) [Example A1.15, 3-(Benzylthio)-N-(furan-2-ylmethyl)-4-(hydroxyimino)-6-(4-methoxyphenyl)-4,5,6,7-tetrahydrobenzo[c]thiophene-1-carboxamide] | > 20 µM | < 5 µM | < 5 µM | < 5 µM | > 20 µM | < 2.6 µM |
| Cc1ccc(CNc2ncc3c(n2)CC(c2ccccc2)C/C3=N\O)cc1 (stereo not drawn) [Example A2.1, 2-((4-Methylbenzyl)amino)-7-phenyl-7,8-dihydroquinazolin-5(6H)-one oxime] | > 20 µM | < 5 µM | < 5 µM | < 5 µM | > 20 µM | < 5 µM |
| O/N=C1\CC(c2ccccc2)Cc2nc(NCCOc3ccccc3)ncc21 (stereo not drawn) [Example A2.2, 2-((2-Phenoxyethyl)amino)-7-phenyl-7,8-dihydroquinazolin-5(6H)-one oxime] | > 20 µM | < 2.5 µM | < 5 µM | < 2.5 µM | > 20 µM | < 2.5 µM |
| Nc1nc(CCCc2ccccc2)c2c(n1)CC(c1ccccc1)C/C2=N\O (stereo not drawn) [Example A2.3, 2-Amino-7-phenyl-4-(3-phenylpropyl)-7,8-dihydroquinazolin-5(6H)-one oxime] | > 20 µM | < 20 µM | < 20 µM |  | > 20 µM | < 15 µM |
| O=C(Nc1ccccc1)c1cc2c(nc1NCCOc1ccccc1)CC(c1ccccc1)C/C2=N\O (stereo not drawn) [Example A3.1, 5-(Hydroxyimino)-2-((2-phenoxyethyl)amino)-N,7-diphenyl-5,6,7,8-tetrahydroquinoline-3-carboxamide] | < 5 µM | < 2.5 µM | < 2.5 µM | < 2.5 µM | > 20 µM | < 2.5 µM |
| N#Cc1cc2c(nc1SCc1ccccc1)CC(c1ccccc1)C/C2=N\O (stereo not drawn) [Example A3.2, 2-(Benzylthio)-5-(hydroxyimino)-7-phenyl-5,6,7,8-tetrahydroquinoline-3-carbonitrile] | > 20 µM | < 15 µM | < 10 µM | < 2.5 µM | > 20 µM | < 5 µM |
| COc1ccc(C2C/C(=N\O)c3sc(NC(=O)COc4ccc(C)cc4)nc3C2)cc1 (stereo not drawn) [Example A4.1] | > 5 µM | < 5 µM | < 2.5 µM | < 5 µM | < 10 µM | < 5 µM |
| O/N=C1\CC(c2ccccc2)Cc2nc(NCc3ccccc3)sc21 (stereo not drawn) [Example A4.2, 2-(Benzylamino)-5-phenyl-5,6-dihydrobenzo[d]thiazol-7(4H)-one oxime] | > 20 µM | < 15 µM | < 15 µM | < 10 µM | > 20 µM | < 10 µM |
